Assay results reported in ChEMBL document CHEMBL3885861, “Open TG-GATES”.

Organism: Rattus norvegicus
Experiment: Open TG-GATES - Regimen: Daily Repeat
Assay type: toxicity, organism-based, Sprague-Dawley
Set-up: regimen Daily Repeat, gender Male, age 6 weeks
Conditions: in vivo, po, 0 mg/kg, route gavage, dose level Control; for APTT / Bas / Eos / Fbg / Hb / Ht / Lym / MCH / MCHC / MCV / Mono / Neu / PT / Plat / RBC / Ret / WBC: tissue Blood; for KIDNEY_L / KIDNEY_R / KIDNEY_TOTAL: tissue Kidney; for LIVER: tissue Liver; for A/G / ALP / ALT / AST / BUN / CRE / Ca / Cl / DBIL / GLC / IP / K / LDH / Na / PL / RALB / TBIL / TC / TG / TP / gamma-GTP: tissue Plasma

CC(C)NNC(=O)c1ccncc1 [IPRONIAZID]
TERMINAL_BW (72 h, time 3 day): 213.5 g
APTT (72 h, time 3 day): 21.8 s
Bas (72 h, time 3 day): 0%
Eos (72 h, time 3 day): 1%
Fbg (72 h, time 3 day): 301.6 mg/dL
Hb (72 h, time 3 day): 13.2 g/dL
Ht (72 h, time 3 day): 38.2%
Lym (72 h, time 3 day): 78.8%
MCH (72 h, time 3 day): 21.2 pg
MCHC (72 h, time 3 day): 34.5%
MCV (72 h, time 3 day): 61.3 fL
Mono (72 h, time 3 day): 2.8%
Neu (72 h, time 3 day): 16.4%
PT (72 h, time 3 day): 16 s
Plat (72 h, time 3 day): 127.9 x10_4/uL
RBC (72 h, time 3 day): 622.8 x10_4/ul
Ret (72 h, time 3 day): 7.5%
WBC (72 h, time 3 day): 99.6 x10_2/uL
KIDNEY_L (72 h, time 3 day): 1 g
KIDNEY_R (72 h, time 3 day): 1 g
KIDNEY_TOTAL (72 h, time 3 day): 1.9 g
LIVER (72 h, time 3 day): 10.5 g
A/G (72 h, time 3 day): 1.3
ALP (72 h, time 3 day): 1294.6 IU/L
ALT (72 h, time 3 day): 41 IU/L
AST (72 h, time 3 day): 70.2 IU/L
BUN (72 h, time 3 day): 18 mg/dL
CRE (72 h, time 3 day): 0.2 mg/dL
Ca (72 h, time 3 day): 10.8 mg/dL
Cl (72 h, time 3 day): 106.6 meq/L
DBIL (72 h, time 3 day): 0 mg/dL
GLC (72 h, time 3 day): 188.8 mg/dL
IP (72 h, time 3 day): 7.2 mg/dL
K (72 h, time 3 day): 4.6 meq/L
LDH (72 h, time 3 day): 261.8 IU/L
Na (72 h, time 3 day): 141.8 meq/L
PL (72 h, time 3 day): 159.6 mg/dL
RALB (72 h, time 3 day): 3.1 g/dL
TBIL (72 h, time 3 day): 0.004 mg/dL
TC (72 h, time 3 day): 83.8 mg/dL
TG (72 h, time 3 day): 100.4 mg/dL
TP (72 h, time 3 day): 5.5 g/dL
gamma-GTP (72 h, time 3 day): 1 IU/L
TERMINAL_BW ([…], time 7 day): 239.8 g
TERMINAL_BW ([…], time 14 day): 277.2 g
TERMINAL_BW ([…], time 28 day): 363.7 g
APTT ([…], time 7 day): 22.5 s
Bas ([…], time 7 day): 0%
Eos ([…], time 7 day): 0.8%
Fbg ([…], time 7 day): 304.6 mg/dL
Hb ([…], time 7 day): 13.5 g/dL
Ht ([…], time 7 day): 37.7%
Lym ([…], time 7 day): 82.4%
MCH ([…], time 7 day): 21 pg
MCHC ([…], time 7 day): 35.7%
MCV ([…], time 7 day): 58.6 fL
Mono ([…], time 7 day): 2.2%
Neu ([…], time 7 day): 13.8%
PT ([…], time 7 day): 15.4 s
Plat ([…], time 7 day): 110.1 x10_4/uL
RBC ([…], time 7 day): 642.8 x10_4/ul
Ret ([…], time 7 day): 6.4%
WBC ([…], time 7 day): 110.4 x10_2/uL
APTT ([…], time 14 day): 22.8 s
Bas ([…], time 14 day): 0%
Eos ([…], time 14 day): 1%
Fbg ([…], time 14 day): 301.2 mg/dL
Hb ([…], time 14 day): 13.6 g/dL
Ht ([…], time 14 day): 39.5%
Lym ([…], time 14 day): 82.8%
MCH ([…], time 14 day): 20 pg
MCHC ([…], time 14 day): 34.4%
MCV ([…], time 14 day): 58.1 fL
Mono ([…], time 14 day): 2.4%
Neu ([…], time 14 day): 13.4%
PT ([…], time 14 day): 16 s
Plat ([…], time 14 day): 110.6 x10_4/uL
RBC ([…], time 14 day): 679.4 x10_4/ul
Ret ([…], time 14 day): 5.1%
WBC ([…], time 14 day): 106.6 x10_2/uL
APTT ([…], time 28 day): 25.2 s
Bas ([…], time 28 day): 0%
Eos ([…], time 28 day): 0.8%
Fbg ([…], time 28 day): 318.6 mg/dL
Hb ([…], time 28 day): 14.5 g/dL
Ht ([…], time 28 day): 40.9%
Lym ([…], time 28 day): 81.6%
MCH ([…], time 28 day): 19.7 pg
MCHC ([…], time 28 day): 35.6%
MCV ([…], time 28 day): 55.2 fL
Mono ([…], time 28 day): 1.8%
Neu ([…], time 28 day): 14.6%
PT ([…], time 28 day): 15.8 s
Plat ([…], time 28 day): 108.3 x10_4/uL
RBC ([…], time 28 day): 741.4 x10_4/ul
Ret ([…], time 28 day): 3%
WBC ([…], time 28 day): 103.1 x10_2/uL
KIDNEY_L ([…], time 7 day): 1 g
KIDNEY_R ([…], time 7 day): 1 g
KIDNEY_TOTAL ([…], time 7 day): 2 g
KIDNEY_L ([…], time 14 day): 1.1 g
KIDNEY_R ([…], time 14 day): 1.1 g
KIDNEY_TOTAL ([…], time 14 day): 2.1 g
KIDNEY_L ([…], time 28 day): 1.4 g
KIDNEY_R ([…], time 28 day): 1.4 g
KIDNEY_TOTAL ([…], time 28 day): 2.8 g
LIVER ([…], time 7 day): 11.2 g
LIVER ([…], time 14 day): 11.8 g
LIVER ([…], time 28 day): 15.8 g
A/G ([…], time 7 day): 1.1
ALP ([…], time 7 day): 1693 IU/L
ALT ([…], time 7 day): 46.6 IU/L
AST ([…], time 7 day): 77.8 IU/L
BUN ([…], time 7 day): 19.2 mg/dL
CRE ([…], time 7 day): 0.2 mg/dL
Ca ([…], time 7 day): 10.6 mg/dL
Cl ([…], time 7 day): 106.4 meq/L
DBIL ([…], time 7 day): 0 mg/dL
GLC ([…], time 7 day): 198.4 mg/dL
IP ([…], time 7 day): 6.8 mg/dL
K ([…], time 7 day): 4 meq/L
LDH ([…], time 7 day): 220.4 IU/L
Na ([…], time 7 day): 141.2 meq/L
PL ([…], time 7 day): 156.2 mg/dL
RALB ([…], time 7 day): 2.9 g/dL
TBIL ([…], time 7 day): 0.002 mg/dL
TC ([…], time 7 day): 77.4 mg/dL
TG ([…], time 7 day): 110.6 mg/dL
TP ([…], time 7 day): 5.5 g/dL
gamma-GTP ([…], time 7 day): 1.2 IU/L
A/G ([…], time 14 day): 1.1
ALP ([…], time 14 day): 1298.6 IU/L
ALT ([…], time 14 day): 35.8 IU/L
AST ([…], time 14 day): 68.4 IU/L
BUN ([…], time 14 day): 20.2 mg/dL
CRE ([…], time 14 day): 0.2 mg/dL
Ca ([…], time 14 day): 10.5 mg/dL
Cl ([…], time 14 day): 107.4 meq/L
DBIL ([…], time 14 day): 0 mg/dL
GLC ([…], time 14 day): 187.4 mg/dL
IP ([…], time 14 day): 5.9 mg/dL
K ([…], time 14 day): 4 meq/L
LDH ([…], time 14 day): 176.8 IU/L
Na ([…], time 14 day): 141.8 meq/L
PL ([…], time 14 day): 135.2 mg/dL
RALB ([…], time 14 day): 3 g/dL
TBIL ([…], time 14 day): 0.006 mg/dL
TC ([…], time 14 day): 66.8 mg/dL
TG ([…], time 14 day): 126.6 mg/dL
TP ([…], time 14 day): 5.7 g/dL
gamma-GTP ([…], time 14 day): 1.6 IU/L
A/G ([…], time 28 day): 1.1
ALP ([…], time 28 day): 1067.8 IU/L
ALT ([…], time 28 day): 38.8 IU/L
AST ([…], time 28 day): 65.4 IU/L
BUN ([…], time 28 day): 17.4 mg/dL
CRE ([…], time 28 day): 0.2 mg/dL
Ca ([…], time 28 day): 10.7 mg/dL
Cl ([…], time 28 day): 105.2 meq/L
DBIL ([…], time 28 day): 0.002 mg/dL
GLC ([…], time 28 day): 190.8 mg/dL
IP ([…], time 28 day): 6.6 mg/dL
K ([…], time 28 day): 4 meq/L
LDH ([…], time 28 day): 171.2 IU/L
Na ([…], time 28 day): 142 meq/L
PL ([…], time 28 day): 142.4 mg/dL
RALB ([…], time 28 day): 3.2 g/dL
TBIL ([…], time 28 day): 0.014 mg/dL
TC ([…], time 28 day): 70.8 mg/dL
TG ([…], time 28 day): 137.6 mg/dL
TP ([…], time 28 day): 6.1 g/dL
gamma-GTP ([…], time 28 day): 1.6 IU/L
